Common to all, as to type: cell-based
Assay [1] relates to Cylindricus fusiformis (PCC100). Description: cell proliferation assay, monoculture of phytoplankton. The conditions noted are these: 8 days. As for the experimental part: (§1) The effects of mimosine at low mM concentrations on pure cultures of four different groups of phytoplankton were tested. The phytoplankton tested were the Cryptophyceae Rhodomonas salina (CCMP1319), the Prymnesiophyceae Isochrysis galbana (CCMP1323), the Bacillariophyceae Cylindricus fusiformis (PCC100) and the dinoflagellate Heterocapsa triquetra (CCMP449). Cultures of phytoplankters were obtained from Bigelow Laboratory for Ocean Sciences (CCMP) or the Plymouth Culture Collection (PCC). The cultures were maintained in f/2 medium at 18° C., under photon flux of […] from fluorescent tubes (Phillips daylight) under a 14:10 hours light/dark cycle. For cell proliferation assays, exponentially growing cells were diluted ten times with fresh medium before the addition of mimosine to give cultures having a final mimosine concentration of 0.01, 0.1 and 1 mM. All chemicals were from Sigma Corporation unless otherwise stated. All growth studies were performed in triplicate. Cell counting was performed by Coulter counter and all samples were counted at least three times.

Assay [2] deals with Heterocapsa triquetra (CCMP449). The assay is described as above. The conditions noted are these: 1 mM mimosine. As for the experimental part: as §1
The test system of assay [3] is Isochrysis galbana (CCMP1323). The assay is described as above. The settings on record: 8 days. The method, then: as §1
The test system of assay [4] is Rhodomonas salina (CCMP1319). The assay is described as above. The settings on record: 8 days. As for the experimental part:
as §1

The subject of assay [5] is diatoms. Description: mixed phytoplankton in natural seawater samples. The settings on record: 2 mM mimosine, 6 days, diatoms dominant group in the control. As for the experimental part:
(§2) Whether mimosine can confer an advantage in the phytoplankton community by adding mimosine directly to natural seawater samples was therefore tested. Natural seawater samples were collected from Port Shelter (eastern Hong Kong) and filtered through a 100 μm mesh to remove all zooplankton immediately before use. Mimosine was then added at 2 mM and samples were taken for estimation of the percentage of dinoflagellates and diatoms. The samples were then incubated under the same conditions as in Example 1. Within 6 days, dinoflagellates became the dominant group. The dinoflagellate population increased from 30% to 60% of the total population (FIG. 2). The diatoms, which were the dominant group in the control, decreased to 10% of the total population in 6 days (at the time of measurement) upon treatment with mimosine.

In assay [6] the test system is dinoflagellates. Description: mixed phytoplankton in natural seawater samples. The conditions noted are these: 2 mM mimosine. As for the experimental part:
as §2

Setting [7] is: 0.01 and 0.1 mM mimosine, f/2 medium.

Each structure is given as a SMILES string.

For the compound `NC(Cn1ccc(=O)c(O)c1)C(=O)O` (stereo not drawn) [mimosine, α-amino-3-hydroxy-4-oxo-1-pyridine propanoic acid], the “mean cell numbers significantly lower than those in the controls” value in assay [1] (1 mM mimosine) is reported as 25%; in assay [4] (1 mM mimosine), 75%. Besides, the “cell number compared to control treatment” value in assay [1] (setting [7]) is listed as “slightly lower numbers of cells, though not significantly so”; in assay [2] it was “increased the cell number significantly”; in assay [3] (setting [7]), “slightly lower numbers of cells, though not significantly so”; in assay [4] (setting [7]), “slightly lower numbers of cells, though not significantly so”. Besides, the cell number increase entry in assay [3] (1 mM mimosine) is “no cell number increase”. Moreover, the “diatoms as percentage of the total population” value in assay [5] was found to be 10%. For the same compound, the “time until dinoflagellates became the dominant group” value in assay [6] (natural seawater) is no more than 6 days. The “dinoflagellate population as percentage of the total population” value in assay [6] (natural seawater (Port Shelter), 6 days, increased from 30%) is 60%.

For the origin of these results see patent US7396672B2, “Method for the production of dinoflagellate cultures” (priority 2003, dated 2008).
